According to BindingDB's records for doi:10.1021/ml300330m (Glaxosmithkline, 2013):

Assay: Inhibition of PI3Kbeta human in PTEN wild type HCC1954 cells assessed as cell growth inhibition

Compound	EC50 [µM]
Cc1nn2c(O)cc(N3CCOCC3)nc2c1Cc1cccc(C(F)(F)F)c1C	15.8
Cc1c(Cc2cnn3c(O)cc(N4CCOCC4)nc23)cccc1C(F)(F)F	15.8
Cc1nn2c(O)cc(N3CCOCC3)nc2c1Cc1cccc2ccccc12	31.6

More lines, in order of falling EC50, values ahead:

EC50 [µM]	Compound
25.1	Cc1nn2c(O)cc(C3CCOCC3)nc2c1Cc1cccc(C(F)(F)F)c1C
12.6	Cc1nn2c(NC(N)=O)cc(N3CCOCC3)nc2c1Cc1cccc(C(F)(F)F)c1C
12.6	Cc1nn2c(N)cc(N3CCOCC3)nc2c1Cc1cccc(C(F)(F)F)c1C
